Source: patent publication US20160129080A1, “TREATMENT OF POLYPOIDAL CHROIDAL VASCULOPATHY” (priority 2013, published 2016)

B1: ranibizumab (antibody, chains of the INN, looked up, V domains shown)
VH: EVQLVESGGGLVQPGGSLRLSCAASGYDFTHYGMNWVRQAPGKGLEWVGWINTYTGEPTYAADFKRRFTFSLDTSKSTAYLQMNSLRAEDTAVYYCAKYPYYYGTSHWYFDVWGQGTLVTVSS
VL: DIQLTQSPSSLSASVGDRVTITCSASQDISNYLNWYQQKPGKAPKVLIYFTSSLHSGVPSRFSGSGSGTDFTLTISSLQPEDFATYYCQQYSTVPWTFGQGTKVEIK
modifications: Fab
notes: anti-VEGF antibody antagonist approved for human use

What was measured:
[1] = Indocyanine green angiography-assessed complete regression of polyps, randomized three-group patient study; format: in vivo, human; conditions: month 6, 61 patients randomized to three groups, ranibizumab 0.5 mg intravitreal
Description: (§1) Sixty-one patients were randomized to three treatment groups: verteporfin photodynamic therapy, ranibizumab 0.5 mg, or the combination. Patients were administered with verteporfin photodynamic therapy/placebo and initiated with three consecutive monthly intravitreal ranibizumab/sham injections starting from day 1 (first photodynamic therapy session). Indocyanine green angiography was performed at baseline and at months 3, 4, 5, and 6. Fluorescein angiography was performed to assess the presence of leakage and to obtain fundus photographs at the same times. Changes in central retinal thickness were determined by optical coherence tomography. Treatment with ranibizumab/sham injections was repeated at months 3-5 on an as-needed basis.
(§2) The primary endpoint was the proportion of patients with indocyanine green angiography-assessed complete regression of polyps at month 6. Secondary endpoints included mean change in best corrected visual acuity at month 6 and safety.

[2] = Best corrected visual acuity change, randomized three-group patient study; format: in vivo, human; conditions: month 6; mean±SD; ranibizumab 0.5 mg intravitreal
Description: as §1, §2

Molecule | proportion of patients with complete polyp regression [1] | Mean change±standard deviation in best corrected visual acuity [2]
verteporfin | 71.4% | 7.5±10.6 letters
B1 | 28.6% | 9.2±12.4 letters
